Measured values from patent US10827754B2, “Fungicidal composition comprising a pyridylethylbenzamide derivative and a compound capable of inhibiting the ergosterol biosynthesis” (BAYER INTELLECTUAL PROPERTY GMBH, priority 2004, dated 2020).

How the values were obtained:
Type in all cases: in vivo
Puccinia recondita [1] = assay: Example 8: efficacy against Puccinia recondita on wheat plants, formulated compounds; settings: 240 h, alone, grading 10 days after contamination
Procedure: (§1) The formulated compounds are diluted with water to obtain the desired active material concentration Wheat plants (Scipion variety) in starter cups, sown on 50/50 peat soil-pozzolana substrate and grown at 12° C., are treated at the 1-leaf stage (10 cm tall) by spraying with the aqueous suspension described above.
(§2) Plants, used as controls, are treated with an aqueous solution not containing the active material.
(§3) After 24 hours, the plants are contaminated by spraying the leaves with an aqueous suspension of Puccinia recondita spores (100,000 spores per ml). The spores are collected from a 10-day-old contaminated wheat and are suspended in water containing 2.5 ml/l of tween 80 10%. The contaminated wheat plants are incubated for 24 hours at 20° C. and at 100% relative humidity, and then for 10 days at 20° C. and at 70% relative humidity. Grading is carried out 10 days after the contamination, in comparison with the control plants.

Botrytis cinerea [2] = assay: Example 16: efficacy against Botrytis cinerea on gherkin plants, formulated compounds; settings: alone, grading 5 to 7 days after contamination
Procedure: (§4) The formulated compounds are diluted with water to obtain the desired active material concentration.
(§5) Gherkin plants (Petit vert de Paris variety) in starter cups, sown on a 50/50 peat soil-pozzolana substrate and grown at 18-20° C., are treated at the cotyledon Z11 stage by spraying with the aqueous suspension described above. Plants, used as controls, are treated with an aqueous solution not containing the active material.
(§6) After 24 hours, the plants are contaminated by depositing drops of an aqueous suspension of Botrytis cinerea spores (150,000 spores per ml) on upper surface of the leaves. The spores are collected from a 15-day-old culture and are suspended in a nutrient solution composed of: • 20 g/L of gelatine • 50 g/L of cane sugar • 2 g/L of NH4NO3 • 1 g/L of KH2PO4
(§7) The contaminated gherkin plants are settled for 5/7 days in a climatic room at 15-11° C. (day/night) and at 80% relative humidity. Grading (% of efficacy) is carried out 5 to 7 days after the contamination, in comparison with the control plants.

Botrytis cinerea [3] = assay: Example 13: efficacy against Botrytis cinerea on gherkin plants, formulated compounds; settings: alone, grading 5 to 7 days after contamination
Procedure: as §4, §5, §6, §7

Botrytis cinerea [4] = assay: Example 6: efficacy against Botrytis cinerea on gherkin plants; settings: alone, grading 5 to 7 days after contamination
Procedure: (§8) The active ingredients tested are prepared by potter homogenisation in a mixture of acetone/tween/water. This suspension is then diluted with water to obtain the desired active material concentration.
as §5, §6, §7

Botrytis cinerea [5] = assay: Example 5: efficacy against Botrytis cinerea on gherkin plants; settings: alone, grading 5 to 7 days after contamination
Procedure: as §8, §5, §6, §7

[6] = tested on: Erysiphe graminis f sp. tritici; assay: Example 2: efficacy against Erysiphe graminis on wheat plants, spray 24 h before contamination; settings: Blumeria graminis, alone, grading 7 to 14 days after contamination
Procedure: as §8
Wheat plants (Audace variety) in starter cups, sown on 50/50 peat soil-pozzolana substrate and grown at 12° C., are treated at the 1-leaf stage (10 cm tall) by spraying with the aqueous suspension described above.
as §2
(§9) After 24 hours, the plants are contaminated by dusting them with Erysiphe graminis f sp. tritici spores, the dusting being carried out using diseased plants.
(§10) Grading is carried out 7 to 14 days after the contamination, in comparison with the control plants.

[7] = tested on: Mycosphaerella graminicola; assay: Example 1: efficacy against Mycosphaerella graminicola on wheat plants, spray 24 h before contamination; settings: Zymoseptoria tritici, alone, grading 21 to 28 days after contamination
Procedure: as §8
(§11) Wheat plants (Scipion variety), sown on a 50/50 peat soil-pozzolana substrate in starter cups and grown at 12° C., are treated at the 1-leaf stage (10 cm tall) by spraying with the aqueous suspension described above. Plants, used as controls, are treated with an aqueous solution not containing the active material.
(§12) After 24 hours, the plants are contaminated by spraying them with an aqueous suspension of Mycosphaerella graminicola spores (500 000 spores per ml). The spores are collected from a 7-day-old culture. The contaminated wheat plants are incubated for 72 hours at 18° C. and at 100% relative humidity, and then for 21 to 28 days at 90% relative humidity.
(§13) Grading (% of efficacy) is carried out 21 to 28 days after the contamination, in comparison with the control plants.

[8] = tested on: Erysiphe graminis f sp. tritici; assay: Example 4: efficacy against Erysiphe graminis on wheat plants, formulated compounds; settings: Blumeria graminis, alone, grading 7 to 14 days after contamination
Procedure: as §1, with “formulated (concentrated suspension)” for “formulated”, “(Audace” for “(Scipion”
as §2, §9, §10

[9] = tested on: Erysiphe graminis f sp. tritici; assay: Example 7: efficacy against Erysiphe graminis on wheat plants, formulated compounds; settings: Blumeria graminis, alone, grading 7 to 14 days after contamination
Procedure: as §1, with “concentration.” for “concentration”, “(Audace” for “(Scipion”
as §2
After 24 hours, the plants are contaminated by dusting them with Erysiphe graminis f sp. tritici spores, the dusting being carried out using diseased plants. Grading is carried out 7 to 14 days after the contamination, in comparison with the control plants.

[10] = tested on: Erysiphe graminis f sp. tritici; assay: Example 14: efficacy against Erysiphe graminis on wheat plants, formulated compounds; settings: Blumeria graminis, alone, grading 7 to 14 days after contamination
Procedure: as §1, with “(Audace” for “(Scipion”
as §2, §9, §10

Botrytis cinerea [11] = assay: Example 3: efficacy against Botrytis cinerea on gherkin plants, spray 24 h before contamination; settings: alone, grading 5 to 7 days after contamination
Procedure: as §8, §5, §6, §7

Botrytis cinerea [12] = assay: Example 9: efficacy against Botrytis cinerea on gherkin plants, formulated compounds; settings: alone, grading 5 to 7 days after contamination
Procedure: as §4, §5, §6, §7

Sphaerotheca fuliginea = assay: Example 11: efficacy against Sphaerotheca fuliginea on gherkin plants, formulated compounds; settings: Podosphaera fuliginea, 504 h, alone, grading 21 days after contamination
Procedure: (§14) The formulated compounds are diluted with water to obtain the desired active material concentration
as §5, with “(Vert petit” for “(Petit vert”, “20° C./23°” for “18-20°”, “2-leaves” for “cotyledon Z11”
After 24 hours, the plants are contaminated by spraying them with an aqueous suspension of Sphaerotheca fuliginea spores (100 000 spores per ml). The spores are collected from a contaminated plants. The contaminated gerkhin plants are incubated at about 20° C./25° C. and at 60/70% relative humidity.
Grading (% of efficacy) is carried out 21 days after the contamination, in comparison with the control plants.

Botrytis cinerea [13] = assay: Example 15: efficacy against Botrytis cinerea on gherkin plants, formulated compounds; settings: read-out: % Efficacy
Procedure: as §4, §5, §6, §7

[14] = tested on: Erysiphe graminis f sp. tritici; assay: Example 17: efficacy against Erysiphe graminis on wheat plants, formulated compounds; settings: Blumeria graminis, alone, grading 7 to 14 days after contamination
Procedure: as §1, with “compounds (Compound 1 and a mix of spiroxamine (300 g/l) and prothioconazole (160 g/l)” for “compounds”, “(Audace” for “(Scipion”
as §2, §9, §10

Puccinia recondita [15] = assay: Example 10: efficacy against Puccinia recondita on wheat plants; settings: 240 h, alone, grading 10 days after contamination
Procedure: as §8
Wheat plants (Scipion variety) in starter cups, sown on 50/50 peat soil-pozzolana substrate and grown at 12° C., are treated at the 1-leaf stage (10 cm tall) by spraying with the aqueous suspension described above.
as §2, §3

[16] = tested on: Mycosphaerella graminicola; assay: Example 12: efficacy against Mycosphaerella graminicola on wheat plants, formulated compounds; settings: Zymoseptoria tritici
Procedure: as §14, §11, §12, §13

Compound `Fc1ccc([C@]2(Cn3cncn3)O[C@H]2c2ccccc2Cl)cc1` (racemic) [Epoxiconazole, reference compound] has an Emax at 15.6 g/ha (Puccinia recondita [1]; dose 15.6 g/ha) of 25%.
`CC(C)(C)C(O)C(Oc1ccc(-c2ccccc2)cc1)n1cncn1` (stereo not drawn) [Bitertanol, reference compound] showed an Emax at 333 ppm (Botrytis cinerea [2]; dose 333 ppm) of 0%.
Work on `O=C(NCCc1ncc(C(F)(F)F)cc1Cl)c1ccccc1C(F)(F)F` [Compound 1, N-{2-[3-chloro-5-(trifluoromethyl)-2-pyridinyl]ethyl}-2-trifluoromethylbenzamide] yielded an Emax at 31.2 g/ha (Botrytis cinerea [3]; dose 31.2 g/ha) of 20%, an Emax at 62.5 g/ha (Botrytis cinerea [3]) of 30% and an Emax at 4 ppm (Botrytis cinerea [4]; dose 4 ppm) of 10%. For the same compound, the Emax at 37 ppm (Botrytis cinerea [5]; dose 37 ppm) was 0%, the Emax at 111 ppm (Botrytis cinerea [5]) was 80% and the Emax at 62.5 g/ha ([6]; dose 62.5 g/ha) was 0%. The Emax at 125 g/ha [6] was 20%, the Emax at 15 g/ha [7] was 25% and the Emax at 31 g/ha [7] was 65%. It also gave an Emax at 62.5 g/ha ([8]; dose 62.5 g/ha) of 10%, an Emax at 250 g/ha ([9]; dose 250 g/ha) of 40% and an Emax at 500 g/ha ([10]; dose 500 g/ha) of 44%. For the same compound, the Emax at 12 ppm (Botrytis cinerea [11]; dose 12 ppm) was 0%, the Emax at 37 ppm (Botrytis cinerea [11]) was 30% and the Emax at 111 ppm (Botrytis cinerea [11]) was 80%. It also gave an Emax at 12.3 ppm (Botrytis cinerea [12]; dose 12.3 ppm) of 0%, an Emax at 37 ppm (Botrytis cinerea [12]; dose 37 ppm) of 50% and an Emax at 4.1 ppm (Sphaerotheca fuliginea; dose 4.1 ppm) of 28%. For the same compound, the Emax at 12.3 ppm (Botrytis cinerea [2]; dose 12.3 ppm) was 5%, the Emax at 37 ppm (Botrytis cinerea [13]; dose 37 ppm, alone, gherkin, grading 5 to 7 days after contamination) was 50% and the Emax at 125 g/ha [14] was 0%. For the same compound, the Emax at 62.5 g/ha (Puccinia recondita [1]; dose 62.5 g/ha) was 0%, the Emax at 250 g/ha (Puccinia recondita [1]; dose 250 g/ha) was 0% and the Emax at 250 g/ha (Puccinia recondita [15]) was 0%. It also gave an Emax at 62.5 g/ha ([16]; dose 62.5 g/ha, alone, wheat, grading 21 to 28 days after contamination) of 77%.
`CC(C1CC1)C(O)(Cn1cncn1)c1ccc(Cl)cc1` (stereo not drawn) [Cyproconazole, reference compound] gave an Emax at 31.2 g/ha ([8]; dose 31.2 g/ha) of 15%.
`CC1COC(Cn2cncn2)(c2ccc(Oc3ccc(Cl)cc3)cc2Cl)O1` (stereo not drawn) [Difenconazole, reference compound] was tested, and the Emax at 111 ppm (Botrytis cinerea [5]) was 15% and the Emax at 333 ppm (Botrytis cinerea [5]; dose 333 ppm) was 25%.
In the case of `CC1(C(=O)Nc2ccc(O)c(Cl)c2Cl)CCCCC1` [Fenhexamid, reference compound], the Emax at 37 ppm (Sphaerotheca fuliginea; dose 37 ppm) is reported as 35%.
For `CC(Cc1ccc(C(C)(C)C)cc1)CN1C[C@@H](C)O[C@@H](C)C1` (stereo partly drawn) [Fenpropimorph, reference compound], the Emax at 62.5 g/ha (Botrytis cinerea [3]) was 10% and the Emax at 125 g/ha (Botrytis cinerea [3]; dose 125 g/ha) was 30%.
`CCCCC(O)(Cn1cncn1)c1ccc(Cl)cc1Cl` (stereo not drawn) [Hexaconazole, reference compound] showed an Emax at 111 ppm (Botrytis cinerea [4]; dose 111 ppm) of 15%.
For `CC1(C)CCC(Cc2ccc(Cl)cc2)C1(O)Cn1cncn1` (stereo not drawn) [Metconazole, reference compound], the Emax at 31.2 g/ha ([9]; dose 31.2 g/ha) was 50%.
For `CCCCC(C#N)(Cn1cncn1)c1ccc(Cl)cc1` (stereo not drawn) [Myclobutanil, reference compound], the Emax at 333 ppm (Botrytis cinerea [12]; dose 333 ppm) was 0%.
Work on `CCCN(CCOc1c(Cl)cc(Cl)cc1Cl)C(=O)n1ccnc1` [Prochloraz, reference compound] yielded an Emax at 250 g/ha ([16]; read-out: % Efficacy) of 54%.
`CCCC1COC(Cn2cncn2)(c2ccc(Cl)cc2Cl)O1` (stereo not drawn) [Propiconazole, reference compound] was tested, and the Emax at 37 ppm (Botrytis cinerea [11]) was 30%, the Emax at 111 ppm (Botrytis cinerea [11]) was 50% and the Emax at 333 ppm (Botrytis cinerea [11]; dose 333 ppm) was 70%.
Compound `OC(Cc1ccccc1Cl)(Cn1nc[nH]c1=S)C1(Cl)CC1` (stereo not drawn) [Prothioconazole, reference compound] has an Emax at 125 g/ha [6] of 0% and an Emax at 250 g/ha ([6]; dose 250 g/ha) of 60%.
In the case of `CCCN(CC)CC1COC2(CCC(C(C)(C)C)CC2)O1` (stereo not drawn) [Spiroxamine, reference compound], the Emax at 125 g/ha ([10]; dose 125 g/ha) is reported as 0%.
`CC(C)(C)C(O)(CCc1ccc(Cl)cc1)Cn1cncn1` (stereo not drawn) [Tebuconazole, reference compound] gave an Emax at 15 g/ha [7] of 15% and an Emax at 31 g/ha [7] of 15%.
`CC(C)(C)C(O)C(Oc1ccc(Cl)cc1)n1cncn1` (stereo not drawn) [Triadimenol, reference compound] gave an Emax at 250 g/ha (Puccinia recondita [15]) of 50%.
In the case of `O=CNC(N1CCN(C(NC=O)C(Cl)(Cl)Cl)CC1)C(Cl)(Cl)Cl` (stereo not drawn) [Triforine], the Emax at 37 ppm (Botrytis cinerea [13]) is reported as 0% and the Emax at 111 ppm (Botrytis cinerea [13]) is reported as 15%.
